Assay results taken from article PMC9430567, “A Small-Molecule Inhibitor of the Anthranilyl-CoA Synthetase PqsA for the Treatment of Multidrug-Resistant Pseudomonas aeruginosa” (Microbiology Spectrum, 2022).
Values after ≈ are worked out from the molar mass of the structure shown.

Key:
MDR P. aeruginosa C218 = system: T1, MDR P. aeruginosa C218; assay: microbe, parasite or virus in culture; design: species or system Pseudomonas aeruginosa C218; CLSI broth micro-dilution MIC, complete inhibition of visible growth; settings: Pseudomonas aeruginosa
T1 construct: C218
Method: MIC determination using the standard micro-dilution method was performed according to the Clinical and Laboratory Standards Institute ([29]). […] Experiments were performed in triplicate.

PqsE = target: T2, PqsE (Pseudomonas aeruginosa, UniProt P20581); assay: biolayer interferometry (Octet K2); type: binding
T2 construct: His6-tagged PqsE (pET30a-His6-pqsE), expressed in E. coli BL21 Star (DE3)

PqsA D299A = target: T3, PqsA D299A (Pseudomonas aeruginosa, UniProt Q9I4X3, D299A); assay: biolayer interferometry (Octet K2); type: binding
T3 construct: His6-tagged PqsA D299A (pET30a-His6-pqsA^D299A), expressed in E. coli BL21 Star (DE3)
T3 sequence (Q9I4X3 1-517 D299A): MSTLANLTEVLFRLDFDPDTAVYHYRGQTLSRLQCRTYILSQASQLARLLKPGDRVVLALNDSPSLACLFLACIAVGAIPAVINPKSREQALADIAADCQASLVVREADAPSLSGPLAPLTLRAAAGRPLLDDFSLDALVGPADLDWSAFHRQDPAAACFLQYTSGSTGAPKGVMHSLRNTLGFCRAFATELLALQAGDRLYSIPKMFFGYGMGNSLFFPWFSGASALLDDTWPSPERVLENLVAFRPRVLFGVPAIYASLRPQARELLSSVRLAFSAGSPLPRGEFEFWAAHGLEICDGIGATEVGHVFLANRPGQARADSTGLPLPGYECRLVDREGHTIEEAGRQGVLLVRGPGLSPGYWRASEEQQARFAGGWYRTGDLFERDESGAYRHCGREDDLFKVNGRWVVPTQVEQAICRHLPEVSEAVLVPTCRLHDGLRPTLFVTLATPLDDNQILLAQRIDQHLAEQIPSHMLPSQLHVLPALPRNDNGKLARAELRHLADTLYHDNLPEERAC

RhlR = RhlR (Pseudomonas aeruginosa, UniProt P54292); assay: biochemical
LasR = target: T4, LasR (Pseudomonas aeruginosa, UniProt P25084); assay: biolayer interferometry (Octet K2); type: binding
T4 construct: His6-tagged LasR (pET30a-His6-LasR), expressed in E. coli BL21 Star (DE3)

PqsA G279A = target: T5, PqsA G279A (Pseudomonas aeruginosa, UniProt Q9I4X3, G279A); assay: biolayer interferometry (Octet K2); type: binding
T5 construct: His6-tagged PqsA G279A (pET30a-His6-pqsA^G279A), expressed in E. coli BL21 Star (DE3)
T5 sequence (Q9I4X3 1-517 G279A): T3 sequence (Q9I4X3 1-517 D299A)

RhlI = target: T6, RhlI (Pseudomonas aeruginosa, UniProt P54291); assay: biochemical; design: biolayer interferometry (BLI) binding to purified His6-tagged protein
T6 construct: His6-tagged RhlI (pET30a-His6-rhlI)
Method: (§1) [compound left out]. Cell debris was removed by centrifugation. […] The purified protein was assessed by SDS-PAGE.

LasI = target: T7, LasI (Pseudomonas aeruginosa, UniProt P33883); assay: biochemical; design: biolayer interferometry (BLI) binding to purified His6-tagged protein
T7 construct: His6-tagged LasI (pET30a-His6-lasI)
Method: as §1

PqsR = target: T8, PqsR (Pseudomonas aeruginosa, UniProt Q9I4X0); assay: biochemical; design: biolayer interferometry (BLI) binding to purified His6-tagged protein
T8 construct: gene mvfR; His6-tagged PqsR (pET30a-His6-pqsR)
Method: as §1

PqsD = target: T9, PqsD (Pseudomonas aeruginosa, UniProt P20582); assay: biochemical; design: biolayer interferometry (BLI) binding to purified His6-tagged protein
T9 construct: His6-tagged PqsD (pET30a-His6-pqsD)
Method: as §1

[1] = target: T10, anthranilyl-CoA synthetase PqsA (Pseudomonas aeruginosa, UniProt Q9I4X3); assay: biolayer interferometry (Octet K2); type: binding
T10 construct: His6-tagged PqsA (pET30a-His6-pqsA), expressed in E. coli BL21 Star (DE3)

| Compound | MIC (MDR P. aeruginosa C218) [µg/mL] | further results |
| --- | --- | --- |
| C[C@@H](O)[C@H]1C(=O)N2C(C(=O)O)=C(S[C@@H]3CN[C@H](CNS(N)(=O)=O)C3)[C@H](C)[C@H]12 [Doripenem] | 500 (≈ 1190 µM) |  |
| CCn1cc(C(=O)O)c(=O)c2cc(F)c(N3CCNCC3)cc21 [Norfloxacin] | 4000 (≈ 12500 µM) |  |
| CC1(C)S[C@@H]2[C@H](NC(=O)[C@H](NC(=O)N3CCNC3=O)c3ccccc3)C(=O)N2[C@H]1C(=O)O [Azlocillin] | 4000 (≈ 8670 µM) |  |
| C[C@H]1COc2c(N3CCN(C)CC3)c(F)cc3c(=O)c(C(=O)O)cn1c23 [Levofloxacin] | 62.5 (≈ 173 µM) |  |
| C[C@@H](O)[C@H]1C(=O)N2C(C(=O)O)=C(S[C@@H]3CN[C@H](C(=O)N(C)C)C3)[C@H](C)[C@H]12 [Meropenem] | 500 (≈ 1300 µM) |  |
| C[C@H]1[C@H](NC(=O)/C(=N\OC(C)(C)C(=O)O)c2csc(N)n2)C(=O)N1S(=O)(=O)O [Aztreonam] | 4000 (≈ 9190 µM) |  |
| NCC[C@H](O)C(=O)N[C@@H]1C[C@H](N)[C@@H](O[C@H]2O[C@H](CN)[C@@H](O)[C@H](O)[C@H]2O)[C@H](O)[C@H]1O[C@H]1O[C@H](CO)[C@@H](O)[C@H](N)[C@H]1O [Amikacin] | 7.8 (≈ 13.3 µM) |  |
| CC(C)(O/N=C(\C(=O)N[C@@H]1C(=O)N2C(C(=O)[O-])=C(C[n+]3ccccc3)CS[C@H]12)c1csc(N)n1)C(=O)O [Ceftazidime] | 500 (≈ 915 µM) |  |
| NC[C@H]1O[C@H](O[C@H]2[C@H](O)[C@@H](O[C@H]3O[C@H](CO)[C@@H](O)[C@H](N)[C@H]3O)[C@H](N)C[C@@H]2N)[C@H](N)C[C@@H]1O [Tobramycin] | 3.9 (≈ 8.34 µM) |  |
| CCN1CCN(C(=O)N[C@@H](C(=O)N[C@@H]2C(=O)N3[C@@H]2SC(C)(C)[C@@H]3C(=O)O)c2ccccc2)C(=O)C1=O [Piperacillin] | 4000 (≈ 7730 µM) |  |
| CO/N=C(\C(=O)N[C@@H]1C(=O)N2C(C(=O)[O-])=C(C[N+]3(C)CCCC3)CS[C@H]12)c1csc(N)n1 [Cefepime] | 4000 (≈ 8320 µM) |  |
| NC[C@H]1O[C@H](O[C@H]2[C@H](O)[C@@H](O[C@H]3O[C@H](CO)[C@@H](O)[C@H](N)[C@H]3O)[C@H](N)C[C@@H]2N)[C@H](O)[C@@H](O)[C@@H]1O [Kanamycin] | 310 (≈ 640 µM) |  |
| c1ccc2c(c1)[nH]c1cnccc12 [norharmane] |  | Kd (PqsE): 500 µM; Kd (PqsA D299A): 1650 µM; Kd (RhlR): > 1000 µM; Kd (LasR): 2290 µM; Kd (PqsA G279A): 1100 µM; Kd (RhlI): > 1000 µM; Kd (LasI): > 1000 µM; Kd (PqsR): > 1000 µM; Kd (PqsD): > 1000 µM; Kd [1]: 2.54 µM |
| COc1c(N2CCNC(C)C2)c(F)cc2c(=O)c(C(=O)O)cn(C3CC3)c12 (centres unmarked) [Gatifloxacin] | 62.5 (≈ 166 µM) |  |
| C[C@@H](O)[C@H]1C(=O)N2C(C(=O)O)=C(SCCNC=N)C[C@H]12 [Imipenem] | 500 (≈ 1670 µM) |  |
| CC1COc2c(N3CCN(C)CC3)c(F)cc3c(=O)c(C(=O)O)cn1c23 (centres unmarked) [Ofloxacin] | 500 (≈ 1380 µM) |  |
| CCn1cc(C(=O)O)c(=O)c2cc(F)c(N3CCNC(C)C3)c(F)c21 (centres unmarked) [Lomefloxacin] | 125 (≈ 356 µM) |  |
